{"source": "patent US20250353812A1", "about": "“2,6-DIBENZYLIDENECYCLOHEXANONE OXIME COMPOUND AND PREPARATION METHOD THEREFOR AND USE THEREOF” (WENZHOU MEDICAL UNIVERSITY, priority 2022, published 2025)", "key": {"[1]": {"test_system": "liver lipid metabolism of obese mice", "test": "Protective effect on liver lipid metabolism of obese mice (high-fat diet)", "format": "in vivo", "details": "HFD mice; Example 9 12 mg/kg, Example 2 10 mg/kg, intragastric gavage every two days for 8 weeks", "procedure": "(§1) A suspension of 0.5% sodium carboxymethylcellulose and the compounds of Examples was prepared for intragastric administration. The blank control group and the high-fat diet obesity model group were administrated with equal doses of solvent (0.5% CMC-Na solution) intragastrically. The mice were first adaptively raised for 1 week, and when the mice were 8 weeks old, they were randomly divided into 2 groups (A: Con, B: HFD). Group A was fed with normal mouse feed, and mice in group B were fed with 60% high-fat feed for 16 weeks. After the model was successfully established at 12 weeks, the mice in group B were randomly divided into three groups (i: HFD, ii: HFD+Example 9, 12 mg/kg, iii: HFD+Example 2, 10 mg/kg). The body weight of the mice was measured and recorded every week, and groups ii and iii were treated with the compounds of Examples by intragastric gavage every two days for 8 weeks. After 24 weeks, the mice were anesthetized and sacrificed, and blood samples were collected and centrifuged to collect serum for various serum biochemical tests; the liver was removed, and the liver tissue was cut and embedded (frozen and paraffin) for immunohistochemistry and other analyses. The remaining liver tissues were snap frozen in liquid nitrogen and stored in a −80° C. freezer.\nThe liver lipid metabolism of obese mice is taken as an example. […] It can be clearly seen from the above test results that the compound having the structure of formula I of the present invention has a protective effect on the liver lipid metabolism of obese mice."}, "[2]": {"test_system": "IL-6", "test": "Inhibition of IL-6 release from J774A.1 macrophages stimulated by LPS (ELISA)", "format": "cell-based", "details": "10 μM compound pretreatment 2 h, then 0.5 μg/mL LPS 22 h, LPS control = 100, FIG. 1", "procedure": "(§2) The present invention tested the dose-effect relationship of some of the compounds of Examples in inhibiting the release of IL-6 and TNF-α from J774A.1 macrophages stimulated by LPS. The specific method is as follows: 1.2×10^6 […] macrophages were cultured by DMEM culture solution at 37° C., the culture solution was renewed after 24 h, the tested example compound (at a final concentration of 10 μM) was added for pretreatment for 2 h and then continuously treated by 0.5 μg/mL of LPS for 22 h, the culture solution was collected, and the content of IL-6 and TNF-α was detected by ELISA method. The total protein concentration was measured by collecting cells, the ELISA results were divided by the corresponding total protein concentration and calibrated by the IL-6 and TNF-α content of LPS control group as 100, and the average and error values were calculated."}, "[3]": {"test_system": "liver inflammation in obese mice", "test": "Protective effect on liver inflammation in obese mice (high-fat diet)", "format": "in vivo", "details": "HFD mice; Example 9 12 mg/kg, Example 2 10 mg/kg, intragastric gavage every two days for 8 weeks", "procedure": "as §1\nTaking the compounds of Examples 2 and 9 as examples, the experimental results are shown in FIGS. 3A-3D and FIGS. 4A-4E, where 2 and 9 represent the compounds of Example 2 and Example 9, respectively. Inflammation was assessed by examining macrophage infiltration in the liver using the macrophage-specific marker F4/80 staining. […] In addition, the expression of TNF-α, IL-6 and IL-1β genes in liver tissue was detected."}, "[4]": {"test_system": "TNF-α", "test": "Inhibition of TNF-α release from J774A.1 macrophages stimulated by LPS (ELISA)", "format": "cell-based", "details": "10 μM compound pretreatment 2 h, then 0.5 μg/mL LPS 22 h, LPS control = 100, FIG. 2", "procedure": "as §2"}}}
{"smiles": "CCCON=C1/C(=C/c2ccccc2C(F)(F)F)CCC/C1=C\\c1ccccc1C(F)(F)F", "note": "[Example 2, 2,6-(E,E)-(2-(trifluoromethyl)benzylidene)cyclohexan-1-one propyl oxime]", "values": [{"measurement": "dyslipidemia caused by high-fat diet feeding (serum triglycerides, low-density lipoprotein cholesterol, total cholesterol)", "setting": "[1]", "result": "significantly alleviated"}, {"measurement": "lipid accumulation in the liver (H&E staining)", "setting": "[1]", "result": "significantly alleviated"}, {"measurement": "lipid accumulation in the liver (oil red staining of frozen sections, quantified)", "setting": "[1]", "result": "significantly alleviates"}, {"measurement": "inhibitory effect on the release of IL-6", "setting": "[2]", "result": "significant inhibitory effect"}, {"measurement": "macrophage infiltration in the liver (F4/80 staining)", "setting": "[3]", "result": "decreased"}, {"measurement": "upregulation of IL-1β gene in mouse liver tissue (mRNA)", "setting": "[3]", "result": "significantly alleviated"}, {"measurement": "upregulation of IL-6 gene in mouse liver tissue (mRNA)", "setting": "[3]", "result": "significantly alleviated"}, {"measurement": "upregulation of TNF-α gene in mouse liver tissue (mRNA)", "setting": "[3]", "result": "significantly alleviated"}, {"measurement": "inhibitory effect on the release of TNF-α", "setting": "[4]", "result": "significant inhibitory effect"}]}
